Laboratory results: patent US12071624B2, “Antisense oligonucleotide targeting ARL4C molecule, and nucleic acid drug using antisense oligonucleotide” (OSAKA UNIVERSITY, priority 2018, dated 2024)

Experiments:
Format in all cases: cell-based, human
ARL4C mRNA [1] = test: Screening of ARL4C ASO knockdown efficiency by real-time PCR in A549 cells; details: screening of 38 types of ARL4C ASOs
Description: (§1) HLE cells, HCT116 cells, and A549 cells were transfected with 25 to 50 nM ASO and 10 to 20 nM siRNA using Lipofectamine 3000 (Invitrogen, Carlsbad, CA, USA) or RNAiMAX (Invitrogen). Transfected cells were used in the experiments 36 to 48 hours after the end of the transfection.
(§2) Cell migration assays and quantitative real-time PCR analyses were performed according to the methods reported by Fujii S et al. (Oncogene 2015; 34: 4834-44).
First, base sequences of 15-nucleotide ARL4C were selected based on the structure of ARL4C mRNA. From thousands of ARL4C ASO candidates, those that may cause hepatotoxicity were excluded, and 38 types of ARL4C ASOs (those other than ASO-1312, ASO-1450 and ASO-3223 among the ASOs in Table 1) were selected, by high-dimensional structure prediction of ARL4C mRNA. The ASOs used in this test were those in which all of the phosphodiester bonds were substituted with phosphorothioate bonds. Knockdown efficiencies of ARL4C ASOs in A549 cells (lung adenocarcinoma cells) were investigated by screening experiments using real-time PCR. It has been confirmed that the protein abundance of ARL4C in A549 cells is reduced by treatment with ARL4C siRNA. The ARL4C mRNA amounts in A549 cells treated with 38 types of ARL4C ASOs were measured, and the results are shown in (a) of FIG. 3.

PIK3CD mRNA [2] = test: PIK3CD mRNA amount by real-time PCR in HLE cells; details: HLE cells treated with 25 μM SecinH3
Description: as §1, §2
HLE cells were treated with 25 μM SecinH3 (inhibitor of Arf nucleotide-binding site opener (ARNO)) or 50 μM NSC23766 (Rac inhibitor), and the amount of PIK3CD mRNA was measured by real-time PCR; the results are shown in (c) of FIG. 5.
HLE cells were transfected with control ASO, ASO-1316, and ASO-3223 at 25 nM, and the PIK3CD mRNA amount was measured by real-time PCR; the results are shown in (g) of FIG. 5. In addition, an anti-phosphorylated AKT (pAKT S473) antibody and an anti-AKT antibody as probes were caused to act on cell lysates of HLE cells transfected with control ASO, ASO-1316, and ASO-3223; the results are shown in (h) of FIG. 5.

PIK3CD mRNA [3] = test: PIK3CD mRNA amount by real-time PCR in ARL4C-expressing HepG2 cells; details: ARL4C-transduced HepG2 cells, 25 μM SecinH3 or 50 μM NSC23766
ARL4C mRNA [4] = test: ARL4C mRNA amount by real-time PCR in HLE cells
Description: as §1, §2
(§3) HLE cells and HCT116 cells were transfected with the above-described seven types of ARL4C ASOs and the control ASO at 25 nM, and the ARL4C mRNA amounts were measured by real-time PCR; the results thereof are shown in (a) of FIG. 4. […] In order to optimize the effect of these three types of ARL4C ASOs, four bases were added to each of these three types of ARL4C ASOs, whereby ASO-1312, ASO-1450, and ASO-3223 each of which consisted of 19 bases were produced. With these six types of ARL4C ASOs (ASO-1316, ASO-1312, ASO-1454, ASO-1450, ASO-3225, and ASO-3223), the knockdown effect on ARL4C was further studied.
HLE cells were transfected with ARL4C ASOs (ASO-1316, ASO-1312, ASO-1454, ASO-1450, ASO-3225, and ASO-3223) at 25 nM each, and the ARL4C mRNA amounts were measured by real-time PCR; the results are shown in (c) of FIG. 3. In addition, HLE cells were transfected with ARL4C ASOs (ASO-1316, ASO-1312, ASO-3225, and ASO-3223) at 0.5 to 25 nM each, and the ARL4C mRNA amounts were measured by real-time PCR; the results are shown in (b) of FIG. 4.
HLE cells were treated with 10 μM PD184161 or 10 nM CTNNB1 siRNA (siRNA against CTNNB1), and the ARL4C mRNA amount was measured by real-time PCR; the results are shown in (a) of FIG. 5. In addition, HLE cells were treated with 10 nM CTNNB1 siRNA (siRNA against CTNNB1), and the ARL4C mRNA amount was measured by real-time PCR; the results thereof are shown in (a) of FIG. 6. PD184161 is a compound that inhibits MEK without knocking down […].

ARL4C mRNA [5] = test: ARL4C mRNA amount by real-time PCR in HCT116 cells; details: HCT116 cells transfected at 25 nM
Description: as §1, §2, §3

## ASO-986: 15-mer ARL4C ASO of Table 1, SEQ ID NO 10 (antisense NNNTCATAGAGCNNG; AmNA modifications; Amido-bridged nucleic acid (AmNA); modified_base (1)..(1) n is Adenine having a structure of AmNA (2′,4′- bridged nucleotide in which R is a methyl group); (1)..(3) n is a, c, g, or t; modified_base (2)..(2) n is 5-methylcytosine having a structure of AmNA (2′,4′-bridged nucleotide in which R is a methyl group); modified_base (3)..(3) n is Thymine having a structure of AmNA (2′,4′- bridged nucleot)
ARL4C mRNA [1]
  knockdown efficiency (ARL4C mRNA amount): high knockdown efficiencies

## COc1nc(-c2ccc3c(c2)OCO3)n(-c2ccc(NC(=O)CSc3ccccc3)cc2)n1 [SecinH3, reference compound]
PIK3CD mRNA [2]
  PIK3CD mRNA amount: reduced the PIK3CD mRNA amount
PIK3CD mRNA [3]
  PIK3CD mRNA amount: suppressed an increase in the PIK3CD mRNA amount

## O=C(NOCC1CC1)c1cc(Br)c(F)c(F)c1Nc1ccc(I)cc1Cl [PD184161, reference compound]
ARL4C mRNA [4]; HLE cells treated with 10 μM PD184161
  ARL4C mRNA amount: reduced ARL4C mRNA amount

## ASO-793: 15-mer ARL4C ASO of Table 1, SEQ ID NO 9 (antisense NNNTGGTCACCTNNT; AmNA modifications; Amido-bridged nucleic acid (AmNA); modified_base (1)..(1) n is Adenine having a structure of AmNA (2′,4′- bridged nucleotide in which R is a methyl group); (1)..(3) n is a, c, g, or t; modified_base (2)..(2) n is 5-methylcytosine having a structure of AmNA (2′,4′-bridged nucleotide in which R is a methyl group); modified_base (3)..(3) n is Thymine having a structure of AmNA (2′,4′- bridged nucleot)
ARL4C mRNA [1]
  knockdown efficiency (ARL4C mRNA amount): high knockdown efficiencies

## ASO-1065: 15-mer ARL4C ASO of Table 1, SEQ ID NO 11 (antisense NNNAAATCAGACNNC; AmNA modifications; Amido-bridged nucleic acid (AmNA); modified_base (1)..(1) n is Guanine having a structure of AmNA (2′,4′- bridged nucleotide in which R is a methyl group); (1)..(3) n is a, c, g, or t; modified_base (2)..(2) n is Guanine having a structure of AmNA (2′,4′- bridged nucleotide in which R is a methyl group); modified_base (3)..(3) n is Thymine having a structure of AmNA (2′,4′- bridged nucleotide in w)
ARL4C mRNA [1]
  knockdown efficiency (ARL4C mRNA amount): high knockdown efficiencies

## ASO-3225: 15-mer ARL4C ASO of Table 1, SEQ ID NO 35 (antisense NNNTTACAGTATNNG; AmNA modifications; Amido-bridged nucleic acid (AmNA); modified_base (1)..(1) n is Adenine having a structure of AmNA (2′,4′- bridged nucleotide in which R is a methyl group); (1)..(3) n is a, c, g, or t; modified_base (2)..(2) n is Guanine having a structure of AmNA (2′,4′- bridged nucleotide in which R is a methyl group); modified_base (3)..(3) n is Guanine having a structure of AmNA (2′,4′- bridged nucleotide in w)
ARL4C mRNA [1]
  knockdown efficiency (ARL4C mRNA amount): high knockdown efficiencies
ARL4C mRNA [5]
  ARL4C mRNA amount: reduced the ARL4C mRNA amount
ARL4C mRNA [4]; HLE cells transfected at 25 nM
  ARL4C mRNA amount: reduced the ARL4C mRNA amount

## ASO-650: 15-mer ARL4C ASO of Table 1, SEQ ID NO 8 (antisense NNNTGGCAGCTGNNG; AmNA modifications; Amido-bridged nucleic acid (AmNA); modified_base (1)..(1) n is Adenine having a structure of AmNA (2′,4′- bridged nucleotide in which R is a methyl group); (1)..(3) n is a, c, g, or t; modified_base (2)..(2) n is Adenine having a structure of AmNA (2′,4′- bridged nucleotide in which R is a methyl group); modified_base (3)..(3) n is Guanine having a structure of AmNA (2′,4′- bridged nucleotide in w)
ARL4C mRNA [1]
  knockdown efficiency (ARL4C mRNA amount): high knockdown efficiencies

## CCN(CC)CCCC(C)Nc1nc(C)cc(Nc2ccc3nc(C)cc(N)c3c2)n1 (centres unmarked) [NSC23766]
PIK3CD mRNA [3]
  PIK3CD mRNA amount: suppressed an increase in the PIK3CD mRNA amount

## ASO-1454: 15-mer ARL4C ASO of Table 1, SEQ ID NO 14 (antisense NNNACAAATGAANNT; AmNA modifications; Amido-bridged nucleic acid (AmNA); modified_base (1)..(1) n is Adenine having a structure of AmNA (2′,4′- bridged nucleotide in which R is a methyl group); (1)..(3) n is a, c, g, or t; modified_base (2)..(2) n is Guanine having a structure of AmNA (2′,4′- bridged nucleotide in which R is a methyl group); modified_base (3)..(3) n is Guanine having a structure of AmNA (2′,4′- bridged nucleotide in w)
ARL4C mRNA [1]
  knockdown efficiency (ARL4C mRNA amount): high knockdown efficiencies
ARL4C mRNA [5]
  ARL4C mRNA amount: reduced the ARL4C mRNA amount
ARL4C mRNA [4]; HLE cells transfected at 25 nM
  ARL4C mRNA amount: reduced the ARL4C mRNA amount
